Assay results as given in ChEMBL document CHEMBL3600300, “Cytotoxic triterpene saponins from Cercodemas anceps” (Bioorg Med Chem Lett, 2015).

Legend:
Assay type in all cases: functional, cell-based
SK-MEL-2 = test: Cytotoxicity against human SK-MEL-2 cells after 48 hrs by SRB assay; settings: SK-MEL-2, 48 h
LNCaP = test: Cytotoxicity against human LNCAP cells after 48 hrs by SRB assay
HepG2 = test: Cytotoxicity against human HepG2 cells after 48 hrs by SRB assay; settings: HepG2, 48 h
MCF7 = test: Cytotoxicity against human MCF7 cells after 48 hrs by SRB assay; settings: MCF7, 48 h
KB = test: Cytotoxicity against human KB cells after 48 hrs by SRB assay

| SMILES | IC50 (SK-MEL-2) [nM] | IC50 (LNCaP) [nM] | IC50 (HepG2) [nM] | IC50 (MCF7) [nM] | IC50 (KB) [nM] |
| --- | --- | --- | --- | --- | --- |
| CC(C)CCC[C@]1(C)OC(=O)[C@]23CC=C4[C@@H](CC[C@H]5C(C)(C)[C@@H](O[C@@H]6OC[C@@H](OS(=O)(=O)O)[C@H](O)[C@H]6O[C@H]6O[C@H](C)[C@@H](O)[C@H](O)[C@H]6O)CC[C@]45C)[C@]2(C)CC(=O)[C@@H]31 | 4090 | 2110 | 2050 | 1090 | 480 |
| CO[C@@H]1[C@@H](O)[C@H](O[C@@H]2[C@@H](O)[C@H](O[C@H]3[C@H](O)[C@@H](O[C@@H]4OC[C@@H](O)[C@H](O)[C@H]4O)[C@H](O[C@H]4[C@H](O[C@H]5CC[C@]6(C)C7=CC[C@]89C(=O)O[C@@](C)(CCCC(C)C)[C@H]8C(=O)C[C@@]9(C)[C@@H]7CC[C@H]6C5(C)C)OC[C@@H](OS(=O)(=O)O)[C@@H]4O)O[C@@H]3C)O[C@H](COS(=O)(=O)O)[C@H]2O)O[C@H](CO)[C@H]1O | 110 | 170 | 70 | 130 | 30 |
| C=C(C)CCC[C@]1(C)OC(=O)[C@]23CC=C4[C@@H](CC[C@H]5C(C)(C)[C@@H](O[C@@H]6OC[C@@H](OS(=O)(=O)O)[C@H](O)[C@H]6O[C@H]6O[C@H](C)[C@@H](O)[C@H](O)[C@H]6O)CC[C@]45C)[C@]2(C)CC(=O)[C@@H]31 | 7360 | 3300 | 6080 | 1330 | 1370 |
| CO[C@@H]1[C@@H](O)[C@H](O[C@@H]2[C@@H](O)[C@H](O[C@H]3[C@H](O)[C@@H](O)[C@H](O[C@H]4[C@H](O[C@H]5CC[C@]6(C)[C@H]7CC[C@]89C(=O)O[C@@](C)(CCC=C(C)C)[C@H]8[C@@H](OC(C)=O)C[C@@]9(C)C7=CC[C@H]6C5(C)C)OC[C@@H](OS(=O)(=O)O)[C@@H]4O)O[C@@H]3C)OC[C@H]2O)O[C@H](CO)[C@H]1O | 850 | 1190 | 1160 | 370 | 110 |
| Cc1c2ccncc2c(C)c2c1[nH]c1ccccc12 [ELLIPTECINE] | 2150 | 1990 | 1710 | 1950 | 2070 |
| CC(C)CCC[C@]1(C)OC(=O)[C@]23CC=C4[C@@H](CC[C@H]5C(C)(C)[C@@H](O[C@@H]6OC[C@@H](OS(=O)(=O)O)[C@H](O)[C@H]6O[C@H]6O[C@H](C)[C@H](O[C@@H]7O[C@H](COS(=O)(=O)O)[C@@H](O)[C@H](O)[C@H]7O)[C@H](O)[C@H]6O)CC[C@]45C)[C@]2(C)CC(=O)[C@@H]31 | 1470 | 1190 | 970 | 560 | 250 |
| C=C(C)CCC[C@]1(C)OC(=O)[C@]23CC=C4[C@@H](CC[C@H]5C(C)(C)[C@@H](O[C@@H]6OC[C@@H](OS(=O)(=O)O)[C@H](O)[C@H]6O[C@@H]6O[C@H](C)[C@@H](O[C@@H]7O[C@H](COS(=O)(=O)O)[C@@H](O)[C@H](O[C@@H]8O[C@H](CO)[C@@H](O)[C@H](OC)[C@H]8O)[C@H]7O)[C@H](O)[C@H]6O[C@@H]6OC[C@@H](O)[C@H](O)[C@H]6O)CC[C@]45C)[C@]2(C)CC(=O)[C@@H]31 | 240 | 230 | 70 | 200 | 40 |
| C=C(C)CCC[C@]1(C)OC(=O)[C@]23CC=C4[C@@H](CC[C@H]5C(C)(C)[C@@H](O[C@@H]6OC[C@@H](OS(=O)(=O)O)[C@H](O)[C@H]6O[C@H]6O[C@H](C)[C@H](O[C@@H]7O[C@H](COS(=O)(=O)O)[C@@H](O)[C@H](O)[C@H]7O)[C@H](O)[C@H]6O)CC[C@]45C)[C@]2(C)CC(=O)[C@@H]31 | 1250 | 1920 | 4690 | 1030 | 320 |
